From patent EP4702986A1, “POLYPEPTIDE AND USE THEREOF” (Biocells (Beijing) Biotech Co., Ltd., priority 2023, dated 2024)
Entries after “also recorded” stand apart in the source; their conditions may differ. Numbered stars: 1 amine (or outer) side, 2 acyl side, 3 side chain; on linkers, the order of the positions; unused ones are H or OH. Square brackets hold non-standard residues; d marks the D form. Side chains are listed from the residue outwards. Peptide text beside a SMILES is read from it. * marks the point of attachment. ξ: configuration not given here. γGlu = O=C(O)[C@H](CCC(=O)[*:2])N[*:1]; Feruloyl = COc1cc(/C=C/C(=O)*)ccc1O; ξ2Nal = NC(Cc1ccc2ccccc2c1)C(=O)O; Fumaroyl = O=C(O)/C=C/C(=O)*; Lauroyl = CCCCCCCCCCCC(=O)*; AEEA = NCCOCCOCC(=O)O

Columns and labels:
human ETB receptor = target: T1, human ETB receptor (Homo sapiens, UniProt P24530); assay: Determination of EC50 of polypeptides against human ETB receptor (IP-One Gq kit); assay type: cell-based; details: 293T-17 cells transfected with PCDNA3.1-hETB; read-out: hETBR agonist activity EC50/nM
T1 construct: expressed in transfected cells; host or cells: 293T-17 cells, transient transfection
T1 sequence (P24530 27-442): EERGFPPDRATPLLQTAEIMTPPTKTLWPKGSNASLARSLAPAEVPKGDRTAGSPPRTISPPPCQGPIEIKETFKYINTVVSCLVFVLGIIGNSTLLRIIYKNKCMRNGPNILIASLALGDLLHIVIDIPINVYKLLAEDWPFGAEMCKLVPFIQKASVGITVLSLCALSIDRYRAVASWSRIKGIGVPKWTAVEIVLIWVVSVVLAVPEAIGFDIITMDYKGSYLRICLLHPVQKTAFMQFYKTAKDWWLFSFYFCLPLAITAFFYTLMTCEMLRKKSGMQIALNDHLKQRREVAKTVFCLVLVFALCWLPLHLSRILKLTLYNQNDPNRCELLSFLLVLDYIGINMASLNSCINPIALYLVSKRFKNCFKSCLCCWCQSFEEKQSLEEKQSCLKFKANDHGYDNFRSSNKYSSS
Procedure: 293T-17 cells were seeded at a density of 650,000 cells per well in a 6-well plate and cultured overnight in an incubator at 37°C and 5% CO2. Afterward, the cells were transfected with an expression vector, PCDNA3.1-hETB which contained a human ETB receptor gene, at a plasmid concentration of 2.5 µg per well. The cells were further cultured for 48 hours, and green fluorescence expression was observed under a fluorescence microscope. The cells were then digested with trypsin and counted. The activity of compounds on the human ETB receptor was determined with the IP-One Gq kit from Cisbio Bioassays. The cells were suspended in Stim Buffer provided in the kit and the cell suspension was added to a 96-well detection plate at 7 µL cell suspension (containing 30,000 cells) per well. The polypeptides to be tested (prepared according to the Preparation Example of the invention) were diluted in Stim B to obtain a gradient of 11 concentration points. For each concentration point, the polypeptides to be tested were dissolved in Stim B to be at a concentration of 2×, and added at 7 µL to the test cells, while 7 µL of PBS solution was added to the cells in the negative control wells. The plate was sealed and incubated at 37°C for 1 hour in a cell culture incubator. Detection wells, positive control wells containing human endothelin ET1 (ET1: […] (C1-C15,C3-C11)), and PBS control wells were each added with 3 µL of IP1 d2 working solution and 3 µL of IP1 Tb cryptotate Antibody working solution. The plate was then sealed and incubated in the dark at room temperature (25°C±5°C) for 1 hour. The plate seal was removed, and the […] at 665 nm and 620 nm was measured with an ID5 microplate reader. The ratio of the acceptor emission signal to the donor emission signal, i.e., (signal at 665 nm/signal at 620 nm)×10^4, was calculated for each well. With F representing the average value of values of signal at 665 nm/signal at 620 nm for the test samples at various concentrations, a scatterplot was plotted, where the abscissa represented the F value, and the ordinate represented the logarithmic value of the peptide concentration. A curve was fitted with an appropriate method to calculate EC50 values of the polypeptides against the human ETB receptor. Another method was provided for fitting a curve where activation rate of the test polypeptides at each concentration relative to the positive control sample human endothelin ET1 was calculated first with the method in Example 1, and a scatterplot was plotted, where the abscissa represented the activation rate, and the ordinate represented the logarithmic value of the polypeptide concentration. A curve was fitted with an appropriate method to calculate the EC50 values of the polypeptides against the human ETB receptor.

in vivo = details: male, SD, rat, in vivo, iv
Procedure: (§1) In an experiment about acute toxicity of intravenous administration, male SD rats weighing 200-230 g were dosed in a range between 480 µg/Kg and 30 µg/Kg via tail vein injection in a descending order of dosage. […] Toxic response and mortality of the rats were preliminarily observed, and time of death and doses without mortality of the rats were recorded. The level of acute toxicity of the polypeptides was preliminarily determined based on the doses without mortality.

male SD rats [1] = assay: in vivo; details: one animal per row, observed 24 hours
Procedure: as §1

male SD rats [2] = details: male SD rats, subcutaneous, observed for 48 hours
Procedure: In an experiment about acute toxicity of subcutaneous administration, male SD rats weighing 200-230 g were dosed in a range between 60 µg/Kg and 960 µg/Kg. Observation was made for 48 hours after subcutaneous administration. Toxic response and mortality of the rats were preliminarily observed, and time of death and doses without mortality were recorded. The level of acute toxicity of the polypeptides was preliminarily determined based on the doses without mortality.

SD rats = details: rat, in vivo
Procedure: Male SD rats were anesthetized with isoflurane, and their neck hairs were shaved. A midline incision was made on the neck to expose the trachea. A ventilator and anesthesia machine for small animals were turned on, with concentration of an anesthetic gas set to 1.2, and its exit channel connected to an inlet of the ventilator. Tidal volume of the ventilator was set to 2 mL, the respiratory rate was 90 breaths/minute, and the respiratory ratio was 1:2. An outlet end of the ventilator was connected to a plastic hose, which was inserted into the rat's airway.
A machine and a software of a biological signal data acquisition and analysis system were turned on. One end of a data acquisition plate was connected to the plastic hose, and the other end was connected to a collector valve connected with a 1-mL syringe. The syringe was filled with heparinized saline, which was injected into the data acquisition plate to expel the air in the entire space until the heparinized saline flowed out from the other end of the plastic hose. The right common carotid arteries of the rats were isolated. A dead knot was made at the distal end and a slipknot at the proximal end of a right common carotid artery. A 1/2-sized incision was made in the artery between the knot with a microscissor, and the plastic hose with heparinized saline was inserted into the incision and fixed to prevent back-and-forth movement. The initial value of the blood pressure was set to zero with the zero-adjustment valve of the biological signal data acquisition and analysis system. The slipknot at the proximal end of the common carotid artery was untied, and real-time blood pressure data of the animal appeared on the software. […] The dosages of IRL1620, BX34, and BX229 were 5 µg/Kg, 42 µg/kg, and 6.6 µg/Kg, respectively.

mouse model of tMCAO = assay: Garcia JH scoring in mouse model of tMCAO; assay type: in vivo, C57/6J mice
Procedure: Fifty-one male C57/6J mice, aged 10-12 weeks, weighing 25-30g, were housed for at least 2 days prior to the experiment to adapt to the environment (SPF Biotech). A mouse model of tMCAO was established. The mice were anesthetized with isoflurane. Their body temperature was controlled by a thermostatic blanket and monitored and maintained at 37±0.5°C. A middle incision was made in the skin on the mouse skull, the skin was pulled outward, and a bendable microneedle tip was fixed to the surface of the left parietal bone of the mouse skull. A middle incision on the neck was made to separate the right common carotid artery (CCA), external carotid artery (ECA) and internal carotid artery (ICA). According to the method of Longa (Longa et al., 1989), a silicone rubber-coated suture (RWD Life Science, suture end diameter: 0.22 mm-0.23 mm, MSMC23B120PK50) was introduced through an external carotid artery incision surgery and was slowly advanced through the internal carotid artery towards the origin of the middle cerebral artery. To ensure a sustained and successful occlusion of the middle cerebral artery, we monitored local cerebral blood flow of all stroke animals with a laser speckle flowmeter (generally, the blood flow can be reduced by 40-60% after stabilized). The suture was removed 45 min after the insertion for modeling, and the incision was sutured. Afterward, 1 mL of 37°C warm saline was injected subcutaneously, and the mice were placed on a heating pad until recovery. To alleviate pain, the mice were injected subcutaneously with Tilidine after awakening from anesthesia.
Successfully modeled C57 tMCAO mice were randomly assigned into three groups: a normal saline group, a 30µg/Kg BX229-Na administration group, and a 100µg/Kg BX229-Na administration group. Each group was administered once subcutaneously in the neck 4.5 hours after occlusion (D1), and was administered once more at the same sites and at the same time points on D3 and D6. A sham group included 6 animals. 2 mL/kg was administrated subcutaneously in the neck. Garcia JH scoring was made on D7 and D14 after administration. After the completion of the scoring on D14, the mice were euthanized and harvested for infarcted brain tissues, to extract total proteins. Changes in protein markers VEGF-A and BDNF in each experimental group were detected by ELISA. Table 19: Experimental Grouping and Dosing Regimen

[3] = Determination of half-lives of polypeptides (plasma, LC-MS); details: C57 BL/6, mouse, plasma, iv
[4] = 30µg/Kg subcutaneously on D1, D3, D6
[5] = tMCAO mice, 30µg/Kg s.c. on D1, D3, D6

SMILES	EC50 (human ETB receptor) [nM]	MTD at 24 h (in vivo) [mg/kg]	Observations of Animal Status (male SD rats [1]; intravenous (tail vein) 60 µg/Kg)	Observations of Animal Status (male SD rats [1]; intravenous (tail vein) 90 µg/Kg)	Observations of Animal Status (male SD rats [1]; intravenous (tail vein) 120 µg/Kg)	acute toxicity of subcutaneous administration compared with IRL1620 (male SD rats [2])	maximum extent of decrease in blood pressure, of the baseline blood pressure (SD rats)	time to the lowest blood pressure (SD rats) [min]	Maximum percentage of blood pressure reduction relative to baseline blood pressure (n = 3) (SD rats; iv)	Time from baseline blood pressure to the lowest blood pressure (SD rats; iv) [min]	Garcia JH-15 score on D7 compared with the normal saline group (mouse model of tMCAO; [4])	Garcia JH-15 score on D14 compared with the normal saline group (mouse model of tMCAO; [4])	Garcia JH-15 score on D7 compared with the normal saline group (mouse model of tMCAO; 100µg/Kg subcutaneously on D1, D3, D6)	Garcia JH-15 score on D7 compared with the normal saline group (mouse model of tMCAO; [5])	Garcia JH-15 score on D14 compared with the normal saline group (mouse model of tMCAO; [5])	Garcia JH-15 score on D7 compared with the normal saline group (mouse model of tMCAO; tMCAO mice, 100µg/Kg s.c. on D1, D3, D6)	Garcia JH-15 score on D14 compared with the normal saline group (mouse model of tMCAO; tMCAO mice, 100µg/Kg s.c. on D1, D3, D6, P < 0.05)	total score of the Garcia JH-15 score, higher than in the normal saline group by (mouse model of tMCAO; tMCAO mice, D7, 100µg/Kg s.c. on D1, D3, D6) [point]	half-life [3] [h]
CC[C@H](C)[C@H](NC(=O)[C@H](CC(=O)O)NC(=O)[C@H](CCCCN)NC(=O)[C@H](Cc1c[nH]cn1)NC(=O)[C@H](C)NC(=O)[C@H](Cc1ccccc1)NC(=O)[C@H](Cc1ccc(O)cc1)NC(=O)[C@@H](NC(=O)[C@H](C)NC(=O)[C@H](CCC(=O)O)NC(=O)[C@H](CCC(=O)O)NC(=O)[C@H](CC(=O)O)NC(=O)/C=C/C(=O)O)C(C)C)C(=O)N[C@H](C(=O)NC(Cc1ccc2ccccc2c1)C(=O)O)[C@@H](C)CC (some centres unmarked) [BX-13-2] (Fumaroyl-DEEAVYFAHKDII[ξ2Nal]-OH; C-terminus assumed)	11.8																		
CC[C@H](C)[C@H](NC(=O)[C@H](CC(=O)O)NC(=O)[C@H](CCCCN)NC(=O)[C@H](Cc1c[nH]cn1)NC(=O)[C@H](C)NC(=O)[C@H](Cc1ccccc1)NC(=O)[C@H](Cc1ccc(O)cc1)NC(=O)[C@@H](NC(=O)[C@H](C)NC(=O)[C@H](CCC(=O)O)NC(=O)[C@H](CCC(=O)O)NC(=O)[C@H](CC(=O)O)NC(=O)/C=C/c1ccc(O)c(OC)c1)C(C)C)C(=O)N[C@H](C(=O)N[C@@H](Cc1c[nH]c2ccccc12)C(=O)O)[C@@H](C)CC [BX-15] (Feruloyl-DEEAVYFAHKDIIW-OH; C-terminus assumed)	41.1																		
CCCCCCCCCCCC(=O)N[C@@H](CCC(=O)NCCOCCOCC(=O)NCCCC[C@H](NC(=O)[C@H](Cc1c[nH]cn1)NC(=O)[C@H](C)NC(=O)[C@H](Cc1ccccc1)NC(=O)[C@H](Cc1ccc(O)cc1)NC(=O)[C@@H](NC(=O)[C@H](C)NC(=O)[C@H](CCC(=O)O)NC(=O)[C@H](CCC(=O)O)NC(=O)[C@H](CC(=O)O)NC(=O)/C=C/C(=O)O)C(C)C)C(=O)N[C@@H](CC(=O)O)C(=O)N[C@H](C(=O)N[C@H](C(=O)N[C@@H](Cc1c[nH]c2ccccc12)C(=O)O)[C@@H](C)CC)C(C)C)C(=O)O [BX-229] (Fumaroyl-DEEAVYFAHK([AEEA-γGlu-Lauroyl])DVIW-OH)		0.06	No obvious reaction within 1 hour; developed rapid breathing at 1 hour; recovered to normal after 10 minutes	Died at 1 hour after administration; also recorded: Developed rapid breathing at 25 minutes after administration; recovered after 25 minutes; showed no willingness to move; also recorded: Developed rapid breathing and the body turned purple at 1 hour after administration; partially recovered after 30 minutes; also recorded: Developed rapid breathing and diarrhea at 45 minutes after administration; recovered after 25 minutes; also recorded: Developed rapid breathing at 44 minutes after administration; died of convulsions at 52 minutes after administration; also recorded: Developed rapid breathing at 43 minutes after administration; recovered after 30 minutes	Died at 26 minutes after administration; had white discharge in the nasal cavity and developed diarrhea	much lower	17.0%±2.0%	20 to 35	17.0%±2.0%	20 to 30	better scores than the normal saline group	better scores than that of the normal saline group	better scores than the normal saline group	better scores	better scores	better scores	significantly different	1	1.28
